Laboratory results from patent US12678508B2, “Compounds for targeted degradation of interleukin-2-inducible T-cell kinase and methods of use” (DANA-FARBER CANCER INSTITUTE, INC., priority 2020, dated 2026).
Values joined by “and” are separate entries in the source; they are usually repeats but may differ in a detail not shown here. Equal entries are not always repeated.

Legend:
Molt4 cells = assay: Proteome-wide profiling by TMT quantitative mass spectrometry; assay type: cell-based; settings: 100 nM, 5 hours
Procedure: Proteome-wide profiling experiments were performed according to the reported protocol (B. Jiang et al., Angew. Chem. Int. Ed. Engl. 58:6321-6326 (2019)). Molt4 cells were treated with DMSO vehicle, 100 nM of compound 1 or 100 nM of compound 2 for 5 hours. Protein abundance measurements were made using TMT quantitative mass spectrometry and significant changes were assessed by moderated t-test as implemented in the limma package. The log2 fold change (log2 FC) is shown on the […] and negative log10 p value (−log10 p value) on the […] for three independent biological replicates of each treatment.

ITK [1] = biological target: T1, ITK (Homo sapiens, UniProt Q08881); assay: ITK degradation in DERL-2 cells (immunoblot); assay type: cell-based; design: endogenous in cells; host or cells: DERL-2 cells
T1 sequence (Q08881 1-620): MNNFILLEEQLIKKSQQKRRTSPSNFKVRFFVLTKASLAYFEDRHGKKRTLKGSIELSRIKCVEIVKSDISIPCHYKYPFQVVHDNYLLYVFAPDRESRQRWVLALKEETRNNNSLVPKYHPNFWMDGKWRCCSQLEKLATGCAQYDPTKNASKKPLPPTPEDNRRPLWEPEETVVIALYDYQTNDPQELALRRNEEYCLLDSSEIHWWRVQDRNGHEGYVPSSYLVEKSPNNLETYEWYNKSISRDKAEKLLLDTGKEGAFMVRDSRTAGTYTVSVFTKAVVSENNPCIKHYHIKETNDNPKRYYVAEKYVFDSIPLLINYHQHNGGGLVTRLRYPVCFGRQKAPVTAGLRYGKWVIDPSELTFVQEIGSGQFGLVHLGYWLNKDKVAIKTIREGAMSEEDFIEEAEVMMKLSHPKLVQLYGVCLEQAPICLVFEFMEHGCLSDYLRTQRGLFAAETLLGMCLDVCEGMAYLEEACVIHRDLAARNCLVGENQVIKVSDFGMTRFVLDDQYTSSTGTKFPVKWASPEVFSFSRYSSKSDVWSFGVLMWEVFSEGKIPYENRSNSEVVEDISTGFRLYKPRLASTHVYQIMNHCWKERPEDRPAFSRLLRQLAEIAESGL
Procedure: (§1) DERL-2 cells (hepatosplenic T-cell lymphoma) were treated with compound 1 for either 4 hours (FIG. 1A) or 18 hours (FIG. 1B) at the indicated doses. After treatment, DERL-2 cells were lysed in Cell Lysis Buffer (Cell Signaling Technology®) on ice for 30 minutes and lysates were clarified by centrifugation. Immunoblotting for ITK was performed to evaluate changes in protein levels upon ITK degrader treatment. All samples were run with equal total protein content and immunoblotting was performed using antibodies that detect total ITK protein as well as GAPDH as a loading control followed by washing and binding of horseradish peroxidase (HRP)-conjugated secondary antibodies. Blots were developed using SuperSignal™ Pico chemiluminescent substrate (Thermo Scientific).
as §1, with “cells” for “cells (hepatosplenic T-cell lymphoma)”, “compound 1, compound 2 or ITK inhibitor (BMS509744)” for “compound 1”, “for” for “for either 4 hours (FIG. 1A) or”, “(FIG. 2)” for “(FIG. 1B)”, “After 18 hours,” for “After treatment,”

ITK [2] = biological target: T1, ITK; assay: ITK degradation in Hut78 cells (immunoblot); assay type: cell-based; design: endogenous in cells; settings: 1 μM, 18 hours
Procedure: Hut78 cells (mycosis fungoides and Sezary syndrome) were treated with or without 1 μM of compound 1 for 18 hours. After treatment, Hut78 cells were lysed in Cell Lysis Buffer (Cell Signaling Technology®) on ice for 30 minutes and lysates were clarified by centrifugation. Immunoblotting for ITK was performed as described in Example 7 to evaluate changes in protein levels upon ITK degrader treatment.

ITK [3] = biological target: T1, ITK; assay: ITK degradation in DERL-2 cells after pre-treatment with excess BMS509744; assay type: cell-based; design: endogenous in cells; host or cells: DERL-2 cells; settings: 10 μM BMS509744 4 hours, then 100 nM compound 1 4 hours
Procedure: DERL-2 cells were pre-treated with or without 10 μM BMS509744 for 4 hours. After 4 hours, 100 nM compound 1 was added and cells were cultured for another 4 hours. After treatment, DERL-2 cells were lysed in Cell Lysis Buffer (Cell Signaling Technology®) on ice for 30 minutes and lysates were clarified by centrifugation. Western blot was performed as described in Example 7 to detect protein expression levels of ITK, IKZF1, IKZF3, and GAPDH.

[4] = Mouse pharmacokinetic (PK) study; assay type: in vivo
Procedure: Standard PK studies were conducted using male C57BI/6 mice obtained from Scripps Fla. A single 2 mg/kg intravenous (IV) injection of compound 1 solution in 5/90 DMSO/10% Captisol® was evaluated. Plasma concentrations of compound 1 reported at each of the 8 time points (5 min, 15 min, 30 min, 1 h, 2 h, 4 h, 6 h and 8 h post dosing) are the average values from 3 test animals.

DERL-2 cells = assay: Cell proliferation and cell death (PI, flow cytometry) of DERL-2 cells in culture with IL-2; assay type: cell-based
Procedure: DERL-2 cells supplemented in culture with IL-2 (FIG. 4A) or without IL-2 (FIG. 4B and FIG. 4C) were treated with compound 1 at the indicated doses. Cells were split at 1:5 ratio with fixed concentration of compound 1 every two days. Cell numbers and cell death were quantified by flow cytometry. Propidium iodide (PI) solution, a marker of cell death, was added to cells 5 minutes before flow cytometry detection. Percent PI-positive is used to quantify cell death.
DERL-2 cells in culture with IL-2 were treated with either 1 μM of compound 1, 1 μM BMS509744 or DMSO. Cells were split at 1:5 ratio and fresh compounds were added every two days. Cell numbers and cell death were quantified by flow cytometry. PI solution was added to cells 5 minutes before flow cytometry detection to indicate cell death.

ITK [5] = biological target: T1, ITK; assay: ITK degradation in DERL-2 cells with NAE inhibitor MLN4924 co-treatment; assay type: cell-based; design: endogenous in cells; host or cells: DERL-2 cells; settings: 18 hours, combination with NAE inhibitor MLN4924
Procedure: DERL-2 cells were treated with compound 1, the NEDD8-activating enzyme (NAE) inhibitor MLN4924, or in combination for 18 hours (FIG. 3) at […]. After 18 hours, DERL-2 cells were lysed in Cell Lysis Buffer (Cell Signaling Technology®) on ice for 30 minutes and lysates were clarified by centrifugation. Western blot was performed as described in Example 7.

Hut78 cells = assay: Cell growth and cell death (PI, flow cytometry) of Hut78 cells; assay type: cell-based; settings: Hut78 cells (independent of IL-2)
ITK [6] = biological target: T1, ITK; assay: In vivo ITK degradation in Hut78 xenograft tumors; design: endogenous in cells; host or cells: Hut78 cells (in culture; or engrafted subcutaneously in NSG mice and purified from tumours); species or system mouse; settings: female NSG mice, engrafted Hut78 cells, 50 mg/kg intraperitoneal, 3 doses every 8 hours, 4 hours after last dose
Procedure: In vivo degradation studies were conducted using female NSG mice. 6 eight-week-old NSG mice were injected subcutaneously with 1*10^7 of Hut78 cells. The injected mice were monitored for tumor formation twice a week until tumor growth reaches an average of 500 mm^3. Mice were then randomized into 3 mice per group, and treated with either vehicle (7.5% DMSO, 20% (2-hydroxypropyl)-β-cyclodextrin [HP-β-CD]) or compound 1 at 50 mg/kg via intraperitoneal injection for 3 doses (every 8 hours×3). Four hours after the last doing, mice were sacrificed to harvest tumors. Tumor tissues were cut into small pieces and dissociated into single cell suspension following the instruction of Tumor Dissociation Kit (Miltenyi Biotec, #130-095-929). Suspension cells were then depleted of mouse cells (Catalog #19849, STEMCELL technology). Purified tumor cells were lysed in Cell Lysis Buffer (Cell Signaling Technology®) on ice for 30 minutes and lysates were clarified by centrifugation. Immunoblotting for ITK was performed as described in Example 7 to evaluate protein level changes.

[7] = mouse, male C57BI/6 mice, single 2 mg/kg IV, plasma
[8] = DERL-2 cells supplemented with IL-2

SMILES: COc1cc(C)c(Sc2cnc(NC(=O)c3ccc(N4CCN(CCCCCCCNC(=O)COc5cc6c7c(cccc7c5)C(=O)N(C5CCC(=O)NC5=O)C6=O)CC4)cc3)s2)cc1C(=O)N1CCN(C(C)=O)CC1 (stereo not drawn) [compound 2, N-(5-((5-(4-acetylpiperazine-1-carbonyl)-4-methoxy-2-methylphenyl)thio)thiazol-2-yl)-4-(4-(7-(2-((2-(2,6-dioxopiperidin-3-yl)-1,3-dioxo-2,3-dihydro-1H-benzo[de]isoquinolin-5-yl)oxy)acetamido)heptyl)piperazin-1-yl)benzamide]
- proteins downregulated (relative protein abundance) (Molt4 cells): selectively downregulated ITK
- concentration at which ITK degradation is evident (ITK [1]; 18 hours): 100 nM
- concentration of maximal ITK degradation (ITK [1]; 18 hours): 1000 nM
- degradation of ITK protein (immunoblot) (ITK [1]; 18 hours): rapid and pronounced degradation of ITK protein

SMILES: COc1cc(C)c(Sc2cnc(NC(=O)c3ccc(N4CCN(CCCCCCCNC(=O)COc5cccc6c5C(=O)N(C5CCC(=O)NC5=O)C6=O)CC4)cc3)s2)cc1C(=O)N1CCN(C(C)=O)CC1 (stereo not drawn) [compound 1, N-(5-((5-(4-acetylpiperazine-1-carbonyl)-4-methoxy-2-methylphenyl)thio)thiazol-2-yl)-4-(4-(7-(2-((2-(2,6-dioxopiperidin-3-yl)-1,3-dioxoisoindolin-4-yl)oxy)acetamido)heptyl)piperazin-1-yl)benzamide]
- degradation of ITK protein (immunoblot) (ITK [2]): pronounced degradation of ITK protein
- ITK degradation induced by compound 1 after pre-treatment with excess BMS509744 (ITK [3]): rescued the degradation
- proteins downregulated (relative protein abundance) (Molt4 cells): downregulated ITK, IKZF1, IKZF3, ZFP91, RNF166, ZNF653 and ZNF692
- AUC % Extrap ([4]; male C57BI/6 mice, single 2 mg/kg IV, plasma): 5.14 % Extrap
- in vivo metabolic stability, exposure and clearance rate (overall assessment) ([4]; mouse PK, 2 mg/kg IV): good in vivo metabolic stability, exposure and clearance rate
- AUC(0-t) [4, 7]: 1370 ng·h/mL and 1.34 µM·h
- Cmax [4, 7]: 1710 ng/mL and 1.67 µM
- Tmax [4, 7]: 4.8 min
- half-life [4, 7]: 131 min
- AUC(0-inf) ([4]; mouse, male C57BI/6 mice, single 2 mg/kg IV, plasma, read-out: AUCINF—obs (converted)): 1440 ng·h/mL
- clearance ([4]; mouse, male C57BI/6 mice, single 2 mg/kg IV, plasma, read-out: Cl—obs): 25.2 mL/min/kg
- MRT inf ([4]; mouse, male C57BI/6 mice, single 2 mg/kg IV, plasma, read-out: MRTINF—obs): 1.96 h
- Vd ([4]; mouse, male C57BI/6 mice, single 2 mg/kg IV, plasma, read-out: VSS—obs): 2.94 L/kg
- degradation of ITK protein (immunoblot) (ITK [1]; 4 hours or 18 hours): rapid and pronounced degradation of ITK protein
- concentration at which ITK degradation is evident (ITK [1]; 18 hours): 1 nM
- concentration of maximal ITK degradation (ITK [1]; 18 hours): 1000 nM
- degradation of ITK protein (immunoblot) (ITK [1]; 18 hours): rapid and pronounced degradation of ITK protein
- cell death (percent PI-positive) compared with DMSO (DERL-2 cells; [8]): induced cell death
- inhibition of cell proliferation compared with DMSO (DERL-2 cells; [8]): > 10 fold
- cell proliferation and cell death of TCL cells (DERL-2 cells; DERL-2 cells with IL-2, 1 μM): blocked cell proliferation and induced cell death
- ITK degradation induced by compound 1 on treatment with MLN4924 (ITK [5]): rescued the degradation
- cell growth and cell death (Hut78 cells): did not inhibit cell growth or induce cell death
- degradation of ITK protein in vivo (immunoblot of purified tumor cells) (ITK [6]): significant degradation of ITK protein in vivo
